According to patent US20160368919A1, “NOVEL PYRIDINE PYRAZINONES AS BET-FAMILY BROMODOMAIN INHIBITORS” (Pfizer Inc., priority 2015, published 2016):
“Also recorded” adds a separate entry of the source.

Legend:
Assay type in all cases: cell-based
MM1.S cells = experiment: MM1.S cell proliferation assay (CellTiter-Glo)
Protocol: (§1) MM1.S (dexamethasone sensitive) and OPM-2 cells were purchased from ATCC and maintained in RPMI-1640 medium with 10% fetal bovine serum at 37 degrees, 5% CO2. Cells were seeded at 10,000 cells/well in 100 uL medium. The following day compounds or control vehicle (DMSO) were added at indicated concentrations in 10 ul volume. Compound treated OPM-2 cells and MM1.S cell were analyzed for cell density at 72h and 96h, respectively, using CellTiter-Glo® (CTG) reagent (Promega). The CTG assay measures the amount of ATP present, which indicates the number of viable cells in culture.

OPM-2 cells = experiment: OPM-2 cell proliferation assay (CellTiter-Glo)
Protocol: as §1

[1] = tested on: c-MYC and MYB expression in MM1.S cells; experiment: Biomarker analysis in MM1.S cells (RT-PCR, Western blot)
Protocol: MM1.S cells (1,000,000 cells) were seeded in […] in 10 mL medium. On the following day cells were treated with indicated compounds for 0, 2, 4, 6, 8, 16, and 24 hours. Cells were collected, washed in PBS, and split for western blot and RNA analysis. For western blot, cells were lysed in RIPA buffer and 30 ug protein was loaded on a 4-12% bis-tris gel under denaturing conditions and transferred to nitrocellulose. Blots were probed with primary antibodies for c-MYC (Cell Signaling #9402) and GAPDH (Cell Signaling #2118) diluted at 1:1000 and then secondary antibodies anti-mouse 680 (LiCor) and anti-rabbit 800 (Licor) and imaged on a LiCor reader. For gene expression analysis, total RNA was prepared using Qiagen total RNA kit (Qiagen) and cDNA was prepared from 100 ng RNA (high capacity cDNA kit; Applied Biosystems). Relative gene expression was analyzed on an Applied Biosystem 7900 qPCR thermocycler using gene expression assays for MYC (Hs00153408_m1), MYB (Hs00920556_m1), and GAPDH (Hs02758991_g1). Relative gene expression is calculated relative to DMSO and normalized to GAPDH expression.

HCC2429 cells = experiment: NMC HCC2429 cell proliferation assay (CellTiter-Glo); settings: Homo sapiens; HCC2429, CTG at 96h
Protocol: NMC HCC2429 Cell Proliferation Assay • HCC2429 cells were plated into a 96-well plate (10,000 cells/well). Compounds or control vehicle (DMSO) were added at indicated concentrations. Compound-treated HCC2429 cells were analyzed for cell density at 96h using CellTiter-Glo® (CTG) reagent (Promega).

[2] = tested on: MYC, SOX2, involucrin and Keratin 14 expression in HCC2429 cells; experiment: Biomarker analysis in HCC2429 cells (RT-PCR, Western blot)
Protocol: HCC2429 cells were plated into a 6-well plate (250,000 cells/well). Cells were treated with compounds or control vehicle (DMSO) at the indicated concentrations for 72 hrs. Cells were collected, washed in PBS, and split for western blot and RNA analysis.

LnCaP cells, AR(+) = experiment: CRPC cell proliferation assay (CellTiter-Glo), LnCaP; settings: CTG at 96h
Protocol: (§2) Castrate-Resistant Prostate Cancer (CRPC) Cell Proliferation Assay • Cells were seeded into 96-well plates at 2,000-10,000 cells/well in 100 uL medium. Four AR(+) cell lines (LnCaP, C4-2 (parental), C4-2AR-WT and C4-2AR—F876L) and one AR(−) cell line (DU-145) were studied. Compound treated cells were analyzed for cell density at 96h, using CellTiter-Glo® (CTG) reagent (Promega).

[3] = tested on: C4-2 (parental) cells, AR(+); experiment: CRPC cell proliferation assay (CellTiter-Glo), C4-2; settings: CTG at 96h
Protocol: as §2

C4-2AR-WT cells, AR(+) = experiment: CRPC cell proliferation assay (CellTiter-Glo), C4-2AR-WT; settings: CTG at 96h
Protocol: as §2

[4] = tested on: C4-2AR-F876L cells, AR(+); experiment: CRPC cell proliferation assay (CellTiter-Glo), C4-2AR-F876L; settings: CTG at 96h
Protocol: as §2

[5] = tested on: CRPC cell lines (LnCaP, C4-2, C4-2AR-WT, C4-2AR-F876L, DU-145); experiment: CRPC cell proliferation assay, summary over the cell lines; settings: AR(+) cell lines, CTG at 96h
Protocol: Castrate-Resistant Prostate Cancer (CRPC) Cell Proliferation Assay • Cells were seeded into 96-well plates at 2,000-10,000 cells/well in 100 uL medium. Four AR(+) cell lines (LnCaP, C4-2 (parental), C4-2AR-WT and C4-2AR—F876L) and one AR(−) cell line (DU-145) were studied. Compound treated cells were analyzed for cell density at 96h, using CellTiter-Glo® (CTG) reagent (Promega). […] Example 10 and IBET-151 BET had submicromolar IC50 values in the AR(+) cell lines. The inhibitors maintained potency in C4-2 cells engineered to express wild type (WT) AR receptor (C4-2-AR-WT), as well as cells engineered to express the F876L mutation (C4-2-AR-F876L) that confers resistance to androgen receptor (AR) antagonists.

[6] = 0.5 uM, RT-PCR time-course 2 to 24 hours
[7] = HCC2429, Western blot, 72 hrs, concentration-dependent

IC50 (MM1.S cells; Homo sapiens, MM1.S, CTG at 96h): 2 nM
IC50 (HCC2429 cells): 47 nM
IC50 (LnCaP cells, AR(+); Homo sapiens): 320 nM
IC50 values in the AR(+) cell lines [5]: submicromolar
SMILES: CCC(=O)N(C)c1ccc2nc(NCCC(=O)O)c(=O)n([C@@H](CC)c3ccccc3)c2n1 [Example 10, N-{6-[methyl(propanoyl)amino]-3-oxo-4-[(1S)-1-phenylpropyl]-3,4-dihydropyrido[2,3-b]pyrazin-2-yl}-beta-alanine]
inhibition of proliferation of MM1.S cells (MM1.S cells; dose dependent manner, FIG. 1.A): inhibited proliferation
IC50 (OPM-2 cells; Homo sapiens, OPM-2, CTG at 72h): 6 nM
inhibition of proliferation of OPM-2 cells (OPM-2 cells; dose dependent manner, FIG. 1.B): inhibited proliferation
expression of c-MYC mRNA relative to GAPDH [1, 6]: strongly down-regulated; also recorded: down-regulated
relative expression of MYB mRNA [1, 6]: down-regulated
relative expression of c-MYC protein ([1]; Western blot, 2, 4, 6, 8, 16 and 24 hours): down-regulated
mRNA expression of involucrin ([2]; HCC2429, RT-PCR, 72 hours, 50 nM, 200 nM and 500 nM, dose dependent): increased
MYC protein level [2, 7]: down-regulated
SOX2 protein level [2, 7]: down-regulated
Max % Inh (LnCaP cells, AR(+)): 69%
IC50 [3]: 500 nM
Max % Inh [3]: 87%
IC50 (C4-2AR-WT cells, AR(+)): 500 nM
Max % Inh (C4-2AR-WT cells, AR(+)): 85%
IC50 [4]: 560 nM
Max % Inh [4]: 85%
